# Tests used:
# potato tubers [1] = details: Beveridge et al. 1981; cited from earlier work
# [2] = system: potato meristem transcripts; assay: Microarray transcriptional profiling (POCI 44K oligo array) of potato meristems; type: cell-based, potato (Russet Burbank)
# Experimental: On the day of treatment, tubers were transferred from 3° to 20° C. and were immediately washed in running tap water. After drying at room temperature in the dark, the tubers were placed into 4 L airtight containers. A beaker containing about 5 g of activated charcoal was placed in the chamber containing the control tubers prior to sealing (Control). DMN (0.15 mL liquid) was placed on cotton wool in a beaker and sealed in the treatment chamber (DMN3 days). The chambers were incubated in the dark at 20° C. for three days. At this time tubers were removed and the lateral meristems were isolated using a curette with the aid of a dissecting microscope. […] One group of DMN-treated tubers was incubated for a further two days in air (dark, 20° C.) prior to meristem isolation (DMN3 days+2).
# RNA was isolated from frozen meristems by grinding to a fine powder in a mortar and pestle followed by isolation and purification using a Ribopure Kit (www.ambio.com). RNA was quantified using a BioSpec nano and quality was assessed by gel electrophoresis and visualization of ribosomal RNA. Total RNA (500 ng) was denatured in the presence of a T7 promoter primer and cDNA was synthesized using reverse transcriptase. The cDNA was used as a template for in vitro transcription by synthesis with T7RNA polymerase, which amplified target material and incorporated cyanine 3-labeled CTP. The labeled cRNA was purified using spin columns and quantified using a spectrophotometer. […] Probe generation and hybridization to the array were conducted through a contract to Gene Logic (www.genelogic.com). Twelve samples were used to probe against the POCI array, three samples from eco-dormant meristems (harvested directly from 3° C. storage), three samples from meristems isolated from tubers treated with DMN for three days in a closed container, three samples treated with water for three days in a closed container, three samples treated with DMN for three days and then exposed to air for two days. The three samples for each treatment were biological replicates.
# Analysis of the microarray was conducted in two stages; total array data was examined using a linear model and the software limma, and pathway analysis was conducted by linking the potato sequences to the Arabidopsis thaliana. […] The data was corrected for background and normalized between arrays using a loess method. […] The use of limma for analysis of oligo arrays was accomplished by analyzing data from a single emission channel.
# The array data was transformed to log base 2 and normalized between arrays using default parameters in GeneMathsXT software package (www.applied-maths.com). […] Pathway Studio 8.0 (www.ariadnegenomics.com) was utilized to determine metabolic changes that were associated with DMN treated for three days compared to controls.
# ABA levels = details: Campbell et al. 2010; cited from earlier work
# [3] = system: sprouting root and tuber crops, bulb crops, ornamentals; assay: Effect on sprouting crops; type: in vivo
# berries = details: freshly harvested berries; copending application; cited from earlier work
# [4] = system: potato meristem transcripts; assay: QT-PCR analysis of potato meristem transcripts; type: cell-based, potato (Russet Burbank); details: DMN for three days, vs control
# Experimental: On the day of treatment, tubers were transferred from 3° to 20° C. and were immediately washed in running tap water. After drying at room temperature in the dark, the tubers were placed into 4 L airtight containers. A beaker containing about 5 g of activated charcoal was placed in the chamber containing the control tubers prior to sealing (Control). DMN (0.15 mL liquid) was placed on cotton wool in a beaker and sealed in the treatment chamber (DMN3 days). The chambers were incubated in the dark at 20° C. for three days. At this time tubers were removed and the lateral meristems were isolated using a curette with the aid of a dissecting microscope. […]
# A set of transcripts was selected for further analysis to confirm the microarray data and to determine the possible cell cycle position of tubers treated with DMN. […] Therefore, primers were determined by isolating a longer DNA sequence from the DFCI-Potato Gene Index corresponding to the microarray oligonucleotide and searching that sequence for primers using the Applied Biosystems Primer Express 3.0 software (www.appliedbiosystems.com). cDNA template for QT-PCR was prepared from mRNA isolated from potato meristems treated with DMN for three days as described above. PCR reactions were run on a StepOne™ Real Time System and analyzed using Step One Software v2.0 (www.appliedbiosystems.com) to determine ΔΔCT values on a log10 scale. […]
# potato tubers [5] = details: J. Zalewsky, personal communication; cited from earlier work
# potato meristems = assay: 3H-thymidine incorporation into DNA of meristems from DMN-treated tubers; type: cell-based, potato (Russet Burbank); details: for Thymidine incorporation (labeled thymidine taken up incorporated into DNA): meristems from tubers treated with DMN 3 days at 20° C.
# Experimental: On the day of treatment, tubers were transferred from 3° to 20° C. and were immediately washed in running tap water. After drying at room temperature in the dark, the tubers were placed into 4 L airtight containers. A beaker containing about 5 g of activated charcoal was placed in the chamber containing the control tubers prior to sealing (Control). DMN (0.15 mL liquid) was placed on cotton wool in a beaker and sealed in the treatment chamber (DMN3 days). The chambers were incubated in the dark at 20° C. for three days. At this time tubers were removed and the lateral meristems were isolated using a curette with the aid of a dissecting microscope. Either used fresh (thymidine incorporation) or immediately frozen in liquid nitrogen and stored at −80° C., as previously described (Campbell et al., 1996). One group of DMN-treated tubers was incubated for a further two days in air (dark, 20° C.) prior to meristem isolation (DMN3 days+2). Samples were also collected from untreated non-dormant buds at day 0 immediately after removal from 3° C. storage; henceforth referred to as eco-dormant (Lang et al. 1987)
# Freshly excised meristems were washed with deionized water and groups of 20 buds were incubated on 1 mL of buffer (10 mM Mes/KOH; pH 5.7) containing 0.9 μCi of ^3H-thymidine (60 μCi/μmole; American Radiolabeled Chemicals Inc., St. Louis, Mo.). The meristems were incubated on an oscillating shaker (100 rpm) at room temperature in the dark. After three hours, meristems were removed from the incubation media, washed extensively with deionized water followed by two washes with incubation buffer containing 5 mM unlabeled thymidine, blotted dry, frozen in liquid nitrogen, and stored at −80° C. To determine incorporation, the frozen meristems were homogenized in 1 mL ice-cold 10% (w/v) TCA. After standing on ice for 3-4 hours, the samples were vigorously mixed. An aliquot was removed and placed in a scintillation vial to determine total uptake. A second equal aliquot was removed and placed on a microfiber filter (GF/C; Whatman). […]
# [6] = DMN three days vs three-day control
compound,measurement,setting,value
"Cc1ccc(C)c2ccccc12 [DMN, 1,4-dimethylnaphthalene]",premature sprouting of potato tubers,potato tubers [1],shown to prevent premature sprouting
same,expression of transcripts that encode cyclin or cyclin-like proteins,[2]; [6],decreased expression
same,transcripts assigned to water regulation and responses to salt stress,[2]; [6],increased
same,expression of the Cln1 homolog CYCA1,[2]; DMN treatment,decrease
same,Nucleoside diphosphate kinase (NDPK) transcript,[2]; exposure to DMN,down regulated
same,ABA levels over control tissues,ABA levels,did not result in an increase in ABA levels
same,effect on sprouting root and tuber crops,"[3]; beet, carrot, cassaca, dasheen (taro), ginger, ginseng, horseradish, parsnip, pototato, sweet potato, turnip, yam",effective
same,effect on sprouting ornamentals,[3]; flowering bulbs,effective
same,effect on sprouting bulb crops,"[3]; garlic, leek, onion, shallot",effective
same,hydration and shelf life of berries,berries,maintain improved hydration
same,"transcripts for CDKB1, CYCD3, PCNA, and UTPase (G1/S-phase or early S-phase)",[4],decreased
same,"transcripts for KRP1, KRP2, MYC2, WRKY, and CYCA3",[4],elevated
same,turgidity and tuber fresh weight,potato tubers [5],increase in turgidity and maintenance of tuber fresh weight
same,Thymidine incorporation (labeled thymidine taken up incorporated into DNA),"potato meristems; Run 1, control 14.3 ± 2.1%",6.7 ± 0.4%
same,Thymidine incorporation (labeled thymidine taken up incorporated into DNA),"potato meristems; Run 2, control 12.5 ± 0.2%",6.5 ± 1.0%
same,reduction in thymidine incorporation into DNA,"potato meristems; non-dormant tuber meristems following DMN treatment, vs control",about 50%

# — patent US20140200144A1, “TREATMENT OF CROPS WITH A LOWER ALKYL N[…] ALTER CELL CYCLE AND WATER REGULATION” (1,4 GROUP, INC., priority 2013, published 2014)
